Results on 16 compounds are retold here after article PMC10418599, “Quercetins, Chlorogenic Acids and Their Colon Metabolites Inhibit Colon Cancer Cell Proliferation at Physiologically Relevant Concentrations” (International Journal of Molecular Sciences, 2023).

Structures are written as SMILES.

For data set [1], the system named is SW480 cell line. The data set is described as follows: Cell metabolism of phenolic compounds (UHPLC-HR-MS analysis of cell media). It is filed as in vitro ADME, Human. The protocol:
To analyze the metabolism of phenolic compounds by Caco-2 and SW480 cells, the cell culture media were withdrawn after 0, 24, 48 and 72 h of incubation. Phenolic compounds were extracted from the culture media by following the procedure reported in Sala et al.. Briefly, 100 μL of cold methanol was mixed with 100 μL of cell media and vortexed for 1 min. The mixture was then centrifuged at 10,000× g (4 °C, 5 min) and the supernatant was injected, after appropriate dilution, in an ultra-high-performance liquid chromatography high-resolution mass spectrometry system (UHPLC-HR-MS).
The HR-MS system consisted of a UHPLC Ultimate 3000 separation module, equipped with a C18 column (Acquity UPLC HSS C18 reversed phase, 2.1 × 100 mm, 1.8 μm particle size, Waters, Milan, Italy) and coupled with a Q Exactive Hybrid Quadrupole-Orbitrap Mass Spectrometer (Thermo Scientific, San Jose, CA, USA). Mobile phases consisted of a mixture of water containing formic acid (0.1%) (mobile phase A) and acetonitrile containing formic acid (0.1%) (mobile phase B). The gradient began at 1% B, reaching 40% B over 20 min. To wash the column, the mobile phase B concentration was raised to 99% over 6 min and kept at 99% for 3 min before returning to the initial conditions. The MS and MS/MS conditions are fully described in Martini et al..
Quantification was carried out by building external calibration curves with the available standard compounds.

Data set [2] relates to SW480 cell line. The data set is described as follows: Anti-proliferative assay (MTS cell proliferation assay). It is filed as cell-based, Human. The settings on record: maximum tested concentration 200 μmol/L. The protocol: Human colon cancer Caco-2 and SW480 cell lines were cultured and grown as previously reported. […] Incubation was carried out for 24, 48 and 72 h. Data were compared with a control solution containing 0.5% DMSO in cell medium and representing 100% proliferation. In addition, six different mixes were prepared to simulate the simultaneous presence of parent phenolic compounds and metabolites by mimicking the possible human inter-individual variability in colon metabolism of phenolic compounds. Two sets of mixes were prepared to consider the colon metabolism of quercetins and chlorogenic acids. […] For each set of mixtures (QUE and CGA mixtures), three different mixes were formulated. One set of mixes mimicked the low-producers metabotype and contained 90% parent compounds and 10% metabolites (mixes QUE-LP and CGA-LP). Another set of mixes was prepared to simulate the high-producers metabotype and contained 10% parent compounds and 90% metabolites (mixes QUE-HP and CGA-HP). Finally, a third set of mixes was prepared with equimolar amounts of all the compounds (mixes QUE-EQ and CGA-EQ). […] Cell proliferation was assessed by the MTS assay as previously described. […] The IC50 values were calculated through non-linear regression analysis by plotting the base-10 logarithm of the phenolic compound concentration vs. the percentage of inhibition.

Setting [3] is: SW480, 24 h, substrate 3-O-Caffeoylquinic acid trans 50 μmol/L.
The mark [4] stands for this setting: SW480, 24 h, substrate 5-O-Caffeoylquinic acid trans 50 μmol/L.
[5] abbreviates: SW480, 48 h, substrate 3-O-Caffeoylquinic acid trans 50 μmol/L.
[6] abbreviates: SW480, 48 h, substrate 5-O-Caffeoylquinic acid trans 50 μmol/L.
[7] abbreviates: SW480, 72 h, substrate 3-O-Caffeoylquinic acid trans 50 μmol/L.
Where [8] appears, read: SW480, 72 h, substrate 5-O-Caffeoylquinic acid trans 50 μmol/L.
The mark [9] stands for this setting: SW480, 24 h, substrate 3,5-di-O-Caffeoylquinic acid 50 μmol/L.
The mark [10] stands for this setting: SW480, 48 h, substrate 3,5-di-O-Caffeoylquinic acid 50 μmol/L.
The mark [11] stands for this setting: SW480, 72 h, substrate 3,5-di-O-Caffeoylquinic acid 50 μmol/L.
The mark [12] stands for this setting: SW480, 24 h, substrate Quercetin 50 μmol/L.
The mark [13] stands for this setting: SW480, 48 h, substrate Quercetin 50 μmol/L.
Where [14] appears, read: SW480, 48 h, substrate Quercetin-3-O-glucoside-4′-O-glucoside 50 μmol/L.
Where [15] appears, read: SW480, 48 h, substrate Quercetin-4′-O-glucoside 50 μmol/L.
[16] abbreviates: SW480, 72 h, substrate Quercetin 50 μmol/L.
[17] abbreviates: SW480, 72 h, substrate Quercetin-3-O-glucoside-4′-O-glucoside 50 μmol/L.
Where [18] appears, read: SW480, 72 h, substrate Quercetin-4′-O-glucoside 50 μmol/L.

Regarding `COc1cc(/C=C/C(=O)OC2C(O)CC(O)(C(=O)O)CC2O)ccc1O` (centres unmarked) [4-O-Feruloylquinic acid], the “Concentration of newly formed metabolite” value with SW480 cell line [1] (setting [3]) stood at 20 ± 0 nM; with SW480 cell line [1] (setting [4]) it was 40 ± 0 nM; in the data set with SW480 cell line [1] (setting [5]), 40 ± 0 nM; with SW480 cell line [1] (setting [6]), 50 ± 0 nM; with SW480 cell line [1] (setting [7]), 70 ± 0 nM; with SW480 cell line [1] (setting [8]) it was 40 ± 0 nM.

`O=C(/C=C/c1ccc(O)c(O)c1)O[C@@H]1C[C@](O)(C(=O)O)C[C@@H](O)[C@H]1O` [3-O-Caffeoylquinic acid cis, 3-O-Caffeoylquinic acid]: the “Concentration of newly formed metabolite” value in the data set on SW480 cell line [1] (setting [3]) came out at 4720 ± 40 nM; with SW480 cell line [1] (setting [4]) it was 410 ± 50 nM; in the data set with SW480 cell line [1] (setting [6]), 360 ± 40 nM; in the data set on SW480 cell line [1] (setting [7]), 3270 ± 170 nM; with SW480 cell line [1] (setting [8]), 720 ± 30 nM.

`COc1cc(/C=C/C(=O)OC2CC(O)(C(=O)O)CC(O)C2O)ccc1O` (centres unmarked) [3-O-Feruloylquinic acid]: the “Concentration of newly formed metabolite” value with SW480 cell line [1] (setting [3]) came out at 80 ± 0 nM; with SW480 cell line [1] (setting [4]), 60 ± 0 nM; with SW480 cell line [1] (setting [5]), 120 ± 0 nM; with SW480 cell line [1] (setting [6]) it was 70 ± 0 nM; with SW480 cell line [1] (setting [7]), 170 ± 0 nM; in the data set with SW480 cell line [1] (setting [8]) it was 50 ± 0 nM.

Consider `O=C(/C=C/c1ccc(O)c(O)c1)O[C@@H]1[C@H](O)C[C@@](O)(C(=O)O)C[C@H]1OC(=O)/C=C/c1ccc(O)c(O)c1` [4,5-di-O-Caffeoylquinic acid], for which the “Concentration of newly formed metabolite” value with SW480 cell line [1] (setting [9]) worked out at 3300 ± 50 nM; with SW480 cell line [1] (setting [10]), 2200 ± 20 nM; in the data set on SW480 cell line [1] (setting [11]), 1710 ± 30 nM.

As for `O=C(/C=C/c1ccc(O)c(O)c1)OC1C(O)CC(OC(=O)/C=C/c2ccc(O)c(O)c2)(C(=O)O)CC1O` (centres unmarked) [1,4-di-O-Caffeoylquinic acid], the “Concentration of newly formed metabolite” value in the data set on SW480 cell line [1] (setting [9]) was determined as 910 ± 30 nM; with SW480 cell line [1] (setting [10]), 660 ± 30 nM; in the data set with SW480 cell line [1] (setting [11]), 550 ± 10 nM.

For the compound `COc1cc(-c2oc3cc(O)cc(O)c3c(=O)c2O)ccc1O` [Isorhamnetin], the “Concentration of newly formed metabolite” value in the data set with SW480 cell line [1] (setting [12]) worked out at 1610 ± 10 nM; in the data set on SW480 cell line [1] (setting [13]) it was 3460 ± 80 nM; in the data set on SW480 cell line [1] (setting [14]) it was 10 ± 0 nM; in the data set with SW480 cell line [1] (setting [15]), 790 ± 30 nM; in the data set on SW480 cell line [1] (setting [16]), 3760 ± 110 nM; in the data set on SW480 cell line [1] (setting [17]), 10 ± 0 nM. In addition, the “Concentration of newly formed metabolite” value with SW480 cell line [1] (setting [18]) stood at 1030 ± 40 nM.

For the compound `COc1ccc(-c2oc3cc(O)cc(O)c3c(=O)c2O)cc1O` [4′-O-methylquercetin], the “Concentration of newly formed metabolite” value with SW480 cell line [1] (setting [12]) was 970 ± 40 nM; in the data set with SW480 cell line [1] (setting [13]), 1650 ± 40 nM; in the data set on SW480 cell line [1] (setting [14]), 10 ± 0 nM; in the data set with SW480 cell line [1] (setting [15]), 490 ± 10 nM; with SW480 cell line [1] (setting [16]) it was 1830 ± 250 nM; in the data set with SW480 cell line [1] (setting [17]), 10 ± 0 nM. Also, the “Concentration of newly formed metabolite” value in the data set with SW480 cell line [1] (setting [18]) turned out to be 710 ± 40 nM.

Turning to `O=C(/C=C/c1ccc(O)c(O)c1)O[C@@H]1C[C@](O)(C(=O)O)C[C@@H](O)[C@H]1O` [5-O-Caffeoylquinic acid cis, 5-O-Caffeoylquinic acid], the “Concentration of newly formed metabolite” value turned out to be 970 ± 50 nM in the data set with SW480 cell line [1] (setting [6]) and 1420 ± 10 nM in the data set with SW480 cell line [1] (setting [8]).

Turning to `O=c1c(O[C@@H]2O[C@H](CO)[C@@H](O)[C@H](O)[C@H]2O)c(-c2ccc(O)c(O)c2)oc2cc(O)cc(O)c12` [Quercetin-3-O-glucoside], the “Concentration of newly formed metabolite” value in the data set on SW480 cell line [1] (SW480, 24 h, substrate Quercetin-3-O-glucoside-4′-O-glucoside 50 μmol/L) was determined as 3350 ± 10 nM; in the data set on SW480 cell line [1] (setting [14]) it was 8940 ± 30 nM; in the data set on SW480 cell line [1] (setting [17]), 9340 ± 50 nM.

Take `COc1cc(/C=C/C(=O)O)ccc1O` [Ferulic acid]: the “Concentration of newly formed metabolite” value in the data set with SW480 cell line [1] (setting [4]) was 60 ± 20 nM; in the data set on SW480 cell line [1] (setting [6]), 330 ± 10 nM; in the data set with SW480 cell line [1] (setting [8]), 370 ± 10 nM.

For the compound `O=C(/C=C/c1ccc(O)c(O)c1)OC1CC(O)(C(=O)O)CC(O)C1OC(=O)/C=C/c1ccc(O)c(O)c1` (centres unmarked) [3,4-di-O-Caffeoylquinic acid], the “Concentration of newly formed metabolite” value is 10120 ± 100 nM in the data set with SW480 cell line [1] (setting [9]), 8040 ± 140 nM with SW480 cell line [1] (setting [10]) and 9050 ± 150 nM in the data set on SW480 cell line [1] (setting [11]).

Turning to `O=C(O)/C=C/c1ccc(O)c(O)c1` [Caffeic acid], the “Concentration of newly formed metabolite” value in the data set on SW480 cell line [1] (setting [3]) stood at 440 ± 10 nM; in the data set with SW480 cell line [1] (setting [5]) it was 430 ± 10 nM; in the data set on SW480 cell line [1] (setting [6]) it was 80 ± 0 nM; in the data set with SW480 cell line [1] (setting [11]), 1070 ± 10 nM; in the data set with SW480 cell line [1] (setting [7]), 570 ± 10 nM; in the data set with SW480 cell line [1] (setting [8]) it was 90 ± 10 nM.

Turning to `O=c1c(O[C@@H]2O[C@H](CO)[C@@H](O)[C@H](O)[C@H]2O)c(-c2ccc(O[C@@H]3O[C@H](CO)[C@@H](O)[C@H](O)[C@H]3O)c(O)c2)oc2cc(O)cc(O)c12` [Quercetin-3-O-glucoside-4′-O-glucoside, quercetin-3-O-glucoside-4′-O-glucoside], the half-inhibitory concentration (IC50) with SW480 cell line [2] (SW480, 48 h of incubation) was > 200 µM; in the data set on SW480 cell line [2] (SW480, 72 h of incubation), ~200 µM.

On to `O=C(/C=C/c1ccc(O)c(O)c1)OC1CC(OC(=O)/C=C/c2ccc(O)c(O)c2)(C(=O)O)CC(O)C1O` (centres unmarked) [1,3-di-O-Caffeoylquinic acid], for which the “Concentration of newly formed metabolite” value in the data set on SW480 cell line [1] (setting [9]) came to 8970 ± 40 nM; in the data set on SW480 cell line [1] (setting [10]), 8870 ± 50 nM; with SW480 cell line [1] (setting [11]) it was 10980 ± 20 nM.

As to `COc1cc(/C=C/C(=O)O[C@@H]2C[C@@](O)(C(=O)O)C[C@@H](O)[C@@H]2O)ccc1O` [5-O-Feruloylquinic acid], the “Concentration of newly formed metabolite” value in the data set with SW480 cell line [1] (setting [3]) worked out at 30 ± 0 nM; in the data set on SW480 cell line [1] (setting [4]), 10 ± 0 nM; with SW480 cell line [1] (setting [5]) it was 30 ± 0 nM; in the data set with SW480 cell line [1] (setting [6]), 30 ± 0 nM; in the data set with SW480 cell line [1] (setting [7]), 50 ± 0 nM; with SW480 cell line [1] (setting [8]) it was 30 ± 0 nM.

For the compound `O=C(/C=C/c1ccc(O)c(O)c1)OC1[C@H](O)CC(O)(C(=O)O)C[C@H]1O` (stereo partly drawn) [4-O-Caffeoylquinic acid trans, 4-O-Caffeoylquinic acid], the “Concentration of newly formed metabolite” value in the data set with SW480 cell line [1] (setting [9]) worked out at 70 ± 10 nM; with SW480 cell line [1] (setting [3]) it was 6890 ± 60 nM; in the data set with SW480 cell line [1] (setting [4]), 12690 ± 120 nM; in the data set with SW480 cell line [1] (setting [10]), 120 ± 10 nM; in the data set on SW480 cell line [1] (setting [5]), 8070 ± 240 nM; in the data set on SW480 cell line [1] (setting [6]), 14800 ± 90 nM. For the same compound, the figures for the “Concentration of newly formed metabolite” value with SW480 cell line [1] (setting [11]), in the data set with SW480 cell line [1] (setting [7]) and in the data set on SW480 cell line [1] (setting [8]) were 250 ± 10 nM, 12020 ± 240 nM and 11930 ± 30 nM, respectively.
